Data on eleven compounds can be found in ChEMBL document CHEMBL1201862, “PubChem BioAssay data set” (2004).

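Assay format: 96-well plates, 48-hour exposure. Here, GI50 denotes the concentration required for 50% inhibition of growth.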 The source made the active and inactive calls. Cut-off read from the data, not from the text of the source: active = GI50 up to about 1.1 µM and inactive = higher.

Test systems include COLO 205; RXF 393; PC-3; HCC 2998; UACC-62; HOP-92; UACC-257; MOLT-4; T47D; SNB-75; DU-145; NCI-H460; K562; OVCAR-8; 786-0; HOP-62; SW-620; IGROV-1; SN12C.
Holding throughout (test): inhibition of tumour cell growth, NCI panel, 48 h

For `COC(=O)[C@@H](NC(=O)N(Cc1ccccc1)C[C@H](CC(C)C)NC(=O)[C@@H](NC(=O)OC(C)(C)C)C(C)C)C(C)C`, the GI50 with COLO 205, in the experiment on RXF 393, in the experiment on PC-3, in the experiment on HCC 2998, in the experiment with UACC-62 and in the experiment with HOP-92 was > 100 µM (inactive) throughout. Also, the GI50 is > 100 µM (inactive) with UACC-257; > 100 µM (inactive) in the experiment on MOLT-4; > 100 µM (inactive) in the experiment with T47D; 33.7 µM (inactive) in the experiment with SNB-75; > 100 µM (inactive) with DU-145; > 100 µM (inactive) in the experiment on NCI-H460. Besides, the GI50 in the experiment with K562, in the experiment on OVCAR-8, with 786-0, with HOP-62 and in the experiment with SW-620 was > 100 µM (inactive) in each case.

On to `OCC1NC(COC2OC(CO)C(O)C(O)C2O)C(O)C(O)C1O` (configuration not stated), for which the GI50 with COLO 205, in the experiment on RXF 393, with IGROV-1, in the experiment on PC-3, in the experiment with HCC 2998 and with UACC-62 was > 100 µM (inactive) in each case. The GI50 with HOP-92, in the experiment with SN12C, in the experiment on UACC-257, in the experiment on MOLT-4, in the experiment with T47D and in the experiment on SNB-75 was > 100 µM (inactive) throughout. Further, the GI50 in the experiment on DU-145, in the experiment on NCI-H460, in the experiment on K562, in the experiment with OVCAR-8, in the experiment on 786-0 and with SW-620 was > 100 µM (inactive) throughout.

In the case of `CO/C(N)=C(C#N)/N=C/c1cccnc1`, the GI50 in the experiment with COLO 205, in the experiment on RXF 393, with IGROV-1, with PC-3, with HCC 2998 and in the experiment on UACC-62 was > 100 µM (inactive) in each case. The GI50 in the experiment with HOP-92, in the experiment with SN12C, in the experiment with UACC-257, with MOLT-4, in the experiment on T47D and in the experiment on SNB-75 was > 100 µM (inactive) each time. The GI50 with DU-145, with K562, in the experiment with OVCAR-8, with 786-0, in the experiment with HOP-62 and with SW-620 was > 100 µM (inactive) throughout.

As for `O=C(c1ccco1)N(C(=S)OCCOc1ccccc1)c1ccccc1`, the GI50 in the experiment with COLO 205 is 21 µM (inactive); in the experiment on RXF 393, 13.8 µM (inactive); in the experiment on IGROV-1, 17.7 µM (inactive); with PC-3, 24.1 µM (inactive); in the experiment on HCC 2998, 21 µM (inactive); with UACC-62, 16.6 µM (inactive). Besides, the GI50 in the experiment with HOP-92 is 14.8 µM (inactive); with SN12C it was 19.5 µM (inactive); in the experiment with UACC-257 it was 17.9 µM (inactive); with MOLT-4 it was 23.8 µM (inactive); with T47D, 20.5 µM (inactive); with DU-145 it was 20.3 µM (inactive). Moreover, the GI50 is 21.9 µM (inactive) in the experiment with NCI-H460; 28.4 µM (inactive) with K562; 19.8 µM (inactive) in the experiment on OVCAR-8; 19.7 µM (inactive) in the experiment on 786-0; 16.2 µM (inactive) with HOP-62; 20.5 µM (inactive) in the experiment on SW-620.

Consider `O=C(CCl)N1CCN(c2ccccc2)CC1`, for which the GI50 was 21.5 µM (inactive) in the experiment with COLO 205; 19.1 µM (inactive) in the experiment on RXF 393; 24.1 µM (inactive) in the experiment on IGROV-1; 40.9 µM (inactive) in the experiment with PC-3; 17.6 µM (inactive) with HCC 2998; 21.4 µM (inactive) in the experiment with HOP-92. For the same compound, the GI50 was 23.2 µM (inactive) in the experiment on UACC-257; 27.2 µM (inactive) in the experiment on MOLT-4; 21.9 µM (inactive) with T47D; 16.7 µM (inactive) in the experiment with SNB-75; > 100 µM (inactive) in the experiment on DU-145; 18.8 µM (inactive) in the experiment on NCI-H460. In addition, the GI50 with K562 was 36.4 µM (inactive); in the experiment on OVCAR-8, 32.1 µM (inactive); in the experiment on 786-0, 15.9 µM (inactive); in the experiment with HOP-62, 19.7 µM (inactive); in the experiment with SW-620, 23.4 µM (inactive).

In the case of `CN(C)CCCNC(=O)CCNC(=O)c1cc(NC(=O)c2cc(NC(=O)c3cc(NC(=O)c4nc(NC(=O)CCCNC(=O)c5cc(NC(=O)c6cc(NC(=O)c7cc(NC(=O)c8nccn8C)cn7C)cn6C)cn5C)cn4C)cn3C)cn2C)cn1C`, the GI50 in the experiment on COLO 205, in the experiment on RXF 393, in the experiment on IGROV-1, with PC-3, with HCC 2998 and with HOP-92 was > 100 µM (inactive) throughout. Further, the GI50 with SN12C, in the experiment with UACC-257, with MOLT-4, with T47D, in the experiment on SNB-75 and in the experiment with DU-145 was > 100 µM (inactive) each time. Also, the GI50 in the experiment on NCI-H460, in the experiment on K562, in the experiment with OVCAR-8, in the experiment with 786-0, with HOP-62 and in the experiment on SW-620 was > 100 µM (inactive) each time.

Take `O=C1c2ccccc2CC12Cc1cc3c(cc1C2=O)CCC3` (configuration not stated): the GI50 with RXF 393, in the experiment with IGROV-1, with PC-3, with HCC 2998, with HOP-92 and with UACC-257 was > 100 µM (inactive) throughout. Moreover, the GI50 with MOLT-4, in the experiment on T47D, in the experiment with SNB-75, in the experiment on DU-145, in the experiment on NCI-H460 and in the experiment on K562 was > 100 µM (inactive) throughout. The GI50 in the experiment with OVCAR-8, in the experiment on 786-0, in the experiment on HOP-62 and in the experiment with SW-620 was > 100 µM (inactive) throughout.

For the compound `COC(=O)[C@]1(c2cc3ccccc3n2S(=O)(=O)c2ccccc2)CC2CCC1NC2` (some centres not stated), the GI50 is 14.4 µM (inactive) with COLO 205; 12.2 µM (inactive) with RXF 393; 14 µM (inactive) in the experiment with IGROV-1; 12.1 µM (inactive) with PC-3; 9.38 µM (inactive) with HCC 2998; 14.5 µM (inactive) in the experiment on UACC-62. In addition, the GI50 with HOP-92 was 9.25 µM (inactive); in the experiment on SN12C it was 15.7 µM (inactive); in the experiment with UACC-257, 15.8 µM (inactive); with T47D, 12.2 µM (inactive); in the experiment with SNB-75, 12.7 µM (inactive); in the experiment on DU-145, 16.1 µM (inactive). In addition, the GI50 in the experiment on NCI-H460 was 14 µM (inactive); with K562 it was 10.4 µM (inactive); in the experiment on OVCAR-8, 14.9 µM (inactive); in the experiment on 786-0 it was 14.3 µM (inactive); in the experiment with HOP-62, 18 µM (inactive); in the experiment with SW-620 it was 14.5 µM (inactive).

On to `Oc1c(CN2CCOCC2)ccc2cccnc12`, for which the GI50 in the experiment on COLO 205, in the experiment with RXF 393, in the experiment with IGROV-1, in the experiment with PC-3, in the experiment with HCC 2998 and in the experiment with HOP-92 was > 10 µM (inactive) each time. The GI50 was > 10 µM (inactive) in the experiment on SN12C; > 10 µM (inactive) in the experiment on UACC-257; 4.11 µM (inactive) in the experiment with MOLT-4; 7.41 µM (inactive) in the experiment on T47D; > 10 µM (inactive) in the experiment with SNB-75; > 10 µM (inactive) with DU-145. Besides, the GI50 is 4.63 µM (inactive) with NCI-H460; 4.4 µM (inactive) in the experiment on K562; > 10 µM (inactive) in the experiment with OVCAR-8; > 10 µM (inactive) in the experiment on 786-0; > 10 µM (inactive) with HOP-62; > 10 µM (inactive) in the experiment on SW-620.

As for `CCN1C(c2ccccc2)=CC(c2ccccc2)(C(Cl)(Cl)Cl)C=C1c1ccccc1`, the GI50 in the experiment on RXF 393 was 17.5 µM (inactive); in the experiment on IGROV-1 it was 4.7 µM (inactive); in the experiment on PC-3 it was 20.6 µM (inactive); with HCC 2998, 3.04 µM (inactive); with HOP-92, 3.11 µM (inactive); with SN12C, 45.3 µM (inactive). For the same compound, the GI50 in the experiment on UACC-257 is 4.56 µM (inactive); with MOLT-4 it was 10.9 µM (inactive); in the experiment with T47D, 0.44 µM (active); in the experiment with SNB-75 it was 5.06 µM (inactive); in the experiment with DU-145, 14.8 µM (inactive); in the experiment on NCI-H460, 7.5 µM (inactive). The GI50 was 2.52 µM (inactive) in the experiment on K562; 6.49 µM (inactive) in the experiment with OVCAR-8; 9.44 µM (inactive) with 786-0; 18.9 µM (inactive) in the experiment with HOP-62; 7.82 µM (inactive) in the experiment with SW-620.

Take `O=c1cccccc1O` [TROPOLONE]: the GI50 with COLO 205 is 39.6 µM (inactive); in the experiment on RXF 393, 26.5 µM (inactive); in the experiment on IGROV-1, > 100 µM (inactive); in the experiment on PC-3, 83.4 µM (inactive); in the experiment with HCC 2998, 79.8 µM (inactive); with UACC-62, 96.6 µM (inactive). The GI50 with HOP-92 is > 100 µM (inactive); in the experiment on UACC-257, > 100 µM (inactive); in the experiment with MOLT-4 it was 26.9 µM (inactive); in the experiment with T47D, 52.8 µM (inactive); in the experiment with SNB-75 it was > 100 µM (inactive); in the experiment with DU-145 it was > 100 µM (inactive). For the same compound, the GI50 is 26.5 µM (inactive) in the experiment on NCI-H460; 35.3 µM (inactive) in the experiment with K562; 32.9 µM (inactive) in the experiment with OVCAR-8; 55.3 µM (inactive) in the experiment on 786-0; 45.5 µM (inactive) in the experiment with SW-620.
